# Data as given in patent publication US9296749B2, “Crystalline cis-(E)-4-(3-fluorophenyl)-2′,3′,4′,9′-tetrahydro-N,N-dimethyl-2′-(1-oxo-3-phenyl-2-propenyl)-spiro[cyclohexane-1,1′[1H]” (priority 2013, dated 2016).
# How the values were obtained:
# Assay type in all cases: physicochemical
# [1] = Interconversion/slurry experiments of mixed crystalline forms in 2-propanol (XRPD)
# Description: About 25 mg of a specific crystalline form of compound (1) and 25 mg of the same or another crystalline form of compound (1) were charged into a vial and 1.0 mL of 2-Propanol was added. The vials were closed and the mixtures were stirred (via shaking using an Eppendorf Thermomixer, starting with 750 rpm, increased to 1000 rpm after 1 day) at an elevated temperature (30±2° C.) for 7 days. Subsequently the mixtures were cooled to 20±2° C. and stirred for an additional 2 hours.
# The solids were then separated via filtration using a suction filter. To dry the thus obtained solid material an air flow was applied for 2 to 3 hours.
# The crystalline form of the obtained materials was determined using XRPD. The experiments are summarized below in table 2 below.
# A mixture of two different crystalline forms of compound (1) was charged into a vial and 1.0 mL of 2-Propanol was added (details see table).
# The vials were closed and the mixtures were stirred (by means of shaking, Eppendorf Thermomixer, 750 rpm at first, increased to 1000 rpm after 1 d) at elevated temperature (30±2° C.) for 7 days.
# Subsequently, the mixtures were cooled to 20±2° C. and stirred for additional 2 hours.
# The solids were then isolated via filtration using a suction filter. The air flow from the suction pump was applied for 2 to 3 hours to dry the isolated solid.
# [2] = Dynamic vapor sorption (DVS), hygroscopicity
# Description: Crystalline forms were characterized by dynamic vapor sorption (DVS) using a Porotec DVS 1000 or a SMS DVS Intrinsic water vapor sorption analyzer. For the DVS analysis, a step width of 10% r.h. was applied allowing the samples to equilibrate and reach weight constancy (±0.002%) for at least 10 min on each step. All measurements were performed according to the following program: 50% r.h.→90% r.h., 90→0% r.h., 0%→90% r.h., 90%→50% r.h. A cycle with increasing humidity is also known as a sorption cycle, a cycle with decreasing humidity is also known as a desorption cycle. The details of the respective DVS measurements are shown below in table 51 and discussed further below.
# The hygroscopicity of the respective crystalline forms determined via the DVS measurements was classified according to the ranges for mass increase defined in the European Pharmacopoeia: very hygroscopic (vh): increase of the mass ≧15%; hygroscopic (h): increase of the mass is less than 15% and equal or greater than 2%; slightly hygroscopic (sh): increase of the mass is less than 2% and equal or greater than 0.2%; not hygroscopic (nh): increase of the mass is less than 0.2%; deliquescent (d): sufficient water is absorbed to form a liquid.
# [3] = Slurry of a single crystalline form in solvent, resulting form by XRPD
# Description: A quantity of compound (1) is charged into a vial or flask and an amount of solvent is added. The resulting suspension/solution is stirred (e.g. orbital shaker or overhead-stirrer) for a given time at a specific temperature. Subsequently, if the suspension/solution was stirred at an elevated temperature, it is allowed to cool to room temperature or any other predetermined temperature to precipitate or crystallize the product and the solvent is removed by filtration.
# The vial was closed and the mixture (a white suspension) was stirred (by means of shaking, 400 rpm, PLS Synthesiser) at room temperature (22±2° C.) for 13 days.
# The solid was separated using a suction filter and dried by applying an air flow for additional 5 to 30 minutes (until the solid appeared to be dry).
# The vial was closed and the suspension was stirred (by means of shaking, PLS shaker, 400 rpm) at an elevated temperature (40° C.±2) for 20 h.
# The mixture was cooled to 20±2° C. The solid was separated using a suction filter (G4) and dried by applying an air flow until the sample appeared to be dry. The white solid was subsequently left for 1 h at ambient conditions.
# [4] = Chemical stability of crystalline forms, open-vial storage (content by HPLC, crystalline form by XRPD)
# Description: Samples of compound 1 in different crystalline forms were stored in open vials under controlled conditions at different temperatures and rel. humidities for 28 days. Prior to storage and after 14 and 28 days the content of compound (1) in the sample was determined via HPLC and the crystalline form was measured via XRPD.
# [5] = Chemical stability in pharmaceutical compositions (excipient mixtures with 10% compound (1)); conditions: listed as A
# Description: To test the chemical stability, i.e. compatibility of different crystalline forms of compound (1), solid multi component mixtures were prepared comprising well established excipients used for solid oral dosage form and having different functions therein. The single components of each mixture were exactly weighed and intensively triturated using a mortar and a pestle.
# 10 g of the final mixtures were separately filled into glass vials (open or closed) and stored under the conditions outlined below in table 13. Samples were taken and analyzed initially and after 1, 2 and 3 months with respect to the content of compound (1) within the mixtures.
compound,measurement,setting,value
CN(C)[C@]1(c2cccc(F)c2)CC[C@]2(CC1)c1[nH]c3ccccc3c1CCN2C(=O)/C=C/c1ccccc1 [A17.9],resulting crystalline form,"[1]; 1.0 mL 2-Propanol, 30±2° C. 7 days, then 20±2° C. 2 hours, XRPD",A + H
"CN(C)[C@]1(c2cccc(F)c2)CC[C@]2(CC1)c1[nH]c3ccccc3c1CCN2C(=O)/C=C/c1ccccc1 [crystalline form A, cis-(E)-4-(3-Fluorophenyl)-2′,3′,4′,9′-tetrahydro-N,N-dimethyl-2′-(1-oxo-3-phenyl-2-propenyl)-spiro[cyclohexane-1,1′[1H]-pyrido[3,4-b]indol]-4-amine]",change in mass with increasing/decreasing relative humidity,[2],−0.2 to 0.1%
same,hysteresis,[2],≤ 0.5%
same,hygroscopicity,[2]; classes of European Pharmacopoeia,not hygroscopic or just slightly hygroscopic
same,resulting crystalline form,"[3]; suspension in ethanol, 40° C.±2, 20 h",crystalline form A
same,resulting crystalline form,"[3]; suspension in ethylacetate/water 70:30, room temperature (22±2° C.), 13 days",crystalline form A
same,Content cmpd (1),"[4]; 40° C., 75% r.H., storage 0 d, listed as A",99.58%
same,Content cmpd (1),"[4]; 40° C., 75% r.H., storage 14 d, listed as A",99.63%
same,Content cmpd (1),"[4]; 40° C., 75% r.H., storage 28 d, listed as A",99.39%
same,Content cmpd (1),"[4]; 50° C., storage 0 d, listed as A",99.58%
same,Content cmpd (1),"[4]; 50° C., storage 14 d, listed as A",99.49%
same,Content cmpd (1),"[4]; 50° C., storage 28 d, listed as A",99.37%
same,thermodynamic stability relative to the other crystalline forms,[1]; conclusion from the interconversion experiments in 2-Propanol,thermodynamically more stable than the other crystalline forms
same,content of compound (1) within the mixture,"[5]; Lactose monohydrate, PVP25, Crospovidone, Talcum, 40° C., 75% rel. hum., 0 month",99.66
same,content of compound (1) within the mixture,"[5]; Lactose monohydrate, PVP25, Crospovidone, Talcum, 40° C., 75% rel. hum., 1 month",99.93
same,content of compound (1) within the mixture,"[5]; Lactose monohydrate, PVP25, Crospovidone, Talcum, 40° C., 75% rel. hum., 2 months",99.72
same,content of compound (1) within the mixture,"[5]; Lactose monohydrate, PVP25, Crospovidone, Talcum, 40° C., 75% rel. hum., 3 months",99.86
same,content of compound (1) within the mixture,"[5]; Lactose monohydrate, PVP25, Crospovidone, Talcum, 50° C. dry, 0 month",99.66
same,content of compound (1) within the mixture,"[5]; Lactose monohydrate, PVP25, Crospovidone, Talcum, 50° C. dry, 1 month",99.58
same,content of compound (1) within the mixture,"[5]; Lactose monohydrate, PVP25, Crospovidone, Talcum, 50° C. dry, 2 months",99.54
same,content of compound (1) within the mixture,"[5]; Lactose monohydrate, PVP25, Crospovidone, Talcum, 50° C. dry, 3 months",99.56
same,content of compound (1) within the mixture,"[5]; Microcrystalline cellulose, HPMC 6 mPas, L-HPC LH21, magnesium stearate, 40° C., 75% rel. hum., 0 month",90.64
same,content of compound (1) within the mixture,"[5]; Microcrystalline cellulose, HPMC 6 mPas, L-HPC LH21, magnesium stearate, 40° C., 75% rel. hum., 1 month",99.61
same,content of compound (1) within the mixture,"[5]; Microcrystalline cellulose, HPMC 6 mPas, L-HPC LH21, magnesium stearate, 40° C., 75% rel. hum., 2 months",99.60
same,content of compound (1) within the mixture,"[5]; Microcrystalline cellulose, HPMC 6 mPas, L-HPC LH21, magnesium stearate, 40° C., 75% rel. hum., 3 months",99.66
same,content of compound (1) within the mixture,"[5]; Microcrystalline cellulose, HPMC 6 mPas, L-HPC LH21, magnesium stearate, 50° C. dry, 0 month",99.64
same,content of compound (1) within the mixture,"[5]; Microcrystalline cellulose, HPMC 6 mPas, L-HPC LH21, magnesium stearate, 50° C. dry, 1 month",99.59
same,content of compound (1) within the mixture,"[5]; Microcrystalline cellulose, HPMC 6 mPas, L-HPC LH21, magnesium stearate, 50° C. dry, 2 months",99.59
same,content of compound (1) within the mixture,"[5]; Microcrystalline cellulose, HPMC 6 mPas, L-HPC LH21, magnesium stearate, 50° C. dry, 3 months",99.62
"CN(C)[C@]1(c2cccc(F)c2)CC[C@]2(CC1)c1[nH]c3ccccc3c1CCN2C(=O)/C=C/c1ccccc1 [crystalline form D, cis-(E)-4-(3-Fluorophenyl)-2′,3′,4′,9′-tetrahydro-N,N-dimethyl-2′-(1-oxo-3-phenyl-2-propenyl)-spiro[cyclohexane-1,1′[1H]-pyrido[3,4-b]indol]-4-amine]",hysteresis (in words),[2]; sorption and desorption behavior,no significant hysteresis
same,transformation into another polymorphic form,"[3]; suspensions of Table 6: acetonitrile, acetone/water or water, RT or 50° C., 3 to 5 d",did not transform into another polymorphic form
same,Content cmpd (1),"[4]; 40° C., 75% r.H., storage 0 d, listed as D",84.61%
same,Content cmpd (1),"[4]; 40° C., 75% r.H., storage 14 d, listed as D",84.27%
same,Content cmpd (1),"[4]; 40° C., 75% r.H., storage 28 d, listed as D",83.92%
same,Content cmpd (1),"[4]; 50° C., storage 0 d, listed as D",84.61%
same,Content cmpd (1),"[4]; 50° C., storage 14 d, listed as D",84.65%
same,Content cmpd (1),"[4]; 50° C., storage 28 d, listed as D",83.54%
"CN(C)[C@]1(c2cccc(F)c2)CC[C@]2(CC1)c1[nH]c3ccccc3c1CCN2C(=O)/C=C/c1ccccc1 [crystalline form E, cis-(E)-4-(3-Fluorophenyl)-2′,3′,4′,9′-tetrahydro-N,N-dimethyl-2′-(1-oxo-3-phenyl-2-propenyl)-spiro[cyclohexane-1,1′[1H]-pyrido[3,4-b]indol]-4-amine]",hysteresis (in words),[2]; between 10% and 40% relative humidity,significant hysteresis
same,Content cmpd (1),"[4]; 40° C., 75% r.H., storage 0 d, listed as E",99.76%
same,Content cmpd (1),"[4]; 40° C., 75% r.H., storage 14 d, listed as E",99.80%
same,Content cmpd (1),"[4]; 40° C., 75% r.H., storage 28 d, listed as E",99.50%
same,Content cmpd (1),"[4]; 50° C., storage 0 d, listed as E",99.76%
same,Content cmpd (1),"[4]; 50° C., storage 14 d, listed as E",97.25%
same,Content cmpd (1),"[4]; 50° C., storage 28 d, listed as E",95.53%
